Experimental data published in publication PMC9637222, “Autoinducer-2 and bile salts induce c-di-GMP synthesis to repress the T3SS via a T3SS chaperone” (Nature Communications, 2022).
Several values for one entry are separate records, joined by “and”; a condition that tells them apart may be missing. Equal entries are not always repeated. Entries after “also recorded” stand apart in the source; their conditions may differ. Where two headings read alike, the source gives them in different places.

Key:
S. Typhimurium [1] = assay: Biofilm formation (crystal violet staining); assay type: cell-based; settings: for OD590: 1 μM, Fig. 4c; for Biofilm formation (in words): strain SL1344, individual components of bile salts
Description: Biofilm formation was measured by crystal violet staining. In brief, overnight cultures of S. Typhimurium strains were diluted with fresh LB medium to an OD600 of 0.05, and 200 μl aliquots of the diluted cells were inoculated into each well of a sterile flat-bottomed 96-well polystyrene microtiter plate. After incubation at 37 °C for 24 h without shaking, culture supernatants were removed, and the wells were washed twice with sterilized water. Cells adhering to the wells were then stained with 0.1% (w/v) crystal violet for 15 min, followed by two washes using distilled water to remove unbound dye. […] For swimming motility assay, overnight cultures of S. Typhimurium strains were diluted to an OD600 of 0.5, and 2 μl aliquots of the diluted cells were spotted onto 0.3% tryptone agar (1% tryptone, 0.5% NaCl, and 0.3% Bacto agar [Difco]). Motility halos were measured after the plates were incubated at 37 °C for 12 h.

SicA = target: T1, SicA (Salmonella typhimurium, UniProt P69066); assay: ITC: nucleotide (c-di-GMP, c-di-AMP, cGMP) binding to SicA; set-up: species or system S. Typhimurium; settings: same experimental conditions as c-di-GMP
T1 construct: His6 (N, cleaved yes); made in house; host or cells: E. coli BL21(DE3), pET-28a (pET28a-sicA)

WP_010904779-LBD = target: T2, WP_010904779-LBD (Escherichia coli O157:H7, UniProt Q8XB92); assay: biochemical; assay type: binding, EHEC O157:H7; settings: for Binding affinity (in words) / Kd: ITC; for Binding affinity (in words): LBD of the YedQ homolog from EHEC O157:H7
T2 construct: His6 (N, cleaved yes); made in house; host or cells: E. coli BL21(DE3) or its luxS deletion derivative
T2 sequence (Q8XB92 43-357 limits assumed): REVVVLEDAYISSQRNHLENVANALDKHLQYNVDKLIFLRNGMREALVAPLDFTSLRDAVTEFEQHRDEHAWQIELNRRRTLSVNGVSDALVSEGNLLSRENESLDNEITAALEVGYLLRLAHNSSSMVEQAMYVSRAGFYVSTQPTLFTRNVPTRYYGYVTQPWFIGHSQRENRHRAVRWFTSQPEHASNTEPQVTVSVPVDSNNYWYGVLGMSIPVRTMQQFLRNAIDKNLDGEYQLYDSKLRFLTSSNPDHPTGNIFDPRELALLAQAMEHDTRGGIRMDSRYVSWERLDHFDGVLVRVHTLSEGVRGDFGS
Description: (§1) ITC measurements were carried out at 20 °C with a Nano ITC Standard Volume isothermal calorimeter (TA Instruments, New Castle, DE) controlled by the ITCRun software. The N-terminal His6 tags of all purified proteins were removed before ITC analysis. For titrations with DPD/AI-2 (Omm Scientific), the tag-free proteins were dialyzed against a Tris buffer (25 mM Tris-HCl, 150 mM NaCl, pH 7.5) and diluted to 70 μM, while DPD/AI-2 was diluted with the same buffer to 700 μM. […] After being degassed, 1 ml of the protein and 250 μl of the ligand solution were added to the sample cell and the syringe, respectively. There were 25 injections per experiment and the stirring speed was 200 rpm. In control experiments, the ligand solution was titrated into the buffer in the sample cell to obtain the heat of dilution. Microcalorimetric data were corrected by subtracting the heats of dilution and fit to the independent binding site model using the NanoAnalyze software.
The binding affinity was evaluated by ITC analysis. ITC data and plots of injected heat for automatic
WP_010904779-LBD are shown in the upper and lower plots, respectively. The binding curves were
corrected for the dilution effects in the finalanalysis.
Kd and binding stoichiometry (n) are presented as mean ± s.d. of three

S. Typhimurium [2] = assay: Cellular c-di-GMP quantification by LC-MS/MS; assay type: cell-based; settings: 1 μM; for c-di-GMP (fmol/107 cells): strain WT(Vector), Fig. 4e; for Change of intracellular c-di-GMP levels (in words): wild-type strain; for Induction of intracellular c-di-GMP levels (in words): ΔyedQ mutant
Description: For stimulation with AI-2, the DPD/AI-2 solution was added to the shaking culture at OD600 of 1.3, followed by another 30 min of incubation at 37 °C. For induction by porcine bile salts and individual bile components (Sigma-Aldrich), substances were added to the static culture at OD600 of 1.1, followed by another 30 min of incubation at 37 °C. About 15 ml of culture was centrifuged and the cells were washed twice with phosphate-buffered saline (PBS, pH 7.0). The cell pellets were resuspended in 500 μl of extraction solution (acetonitrile/methanol/water, 40:40:20, v/v/v) and cooled on ice for 15 min. The samples were boiled for 10 min at 95 °C and then cooled again on ice for 15 min. After centrifugation at 20,000×g and 4 °C for 10 min, supernatants were transferred to new tubes on ice. The remaining pellets were used for two more extraction steps with 500 μl of the extraction solution without heating. Pooled supernatants for each sample were lyophilized, and pellets were resolubilized in 200 μl of distilled water. C-di-GMP concentrations were then measured by LC-MS/MS[63] (AB SCIEX QTRAP 6500+ LC-MS/MS System). Intracellular levels of c-di-GMP were normalized to the number of bacterial cells for each sample.

YedQ-LBD = target: T3, YedQ-LBD (Salmonella typhimurium, UniProt Q8ZNT5); assay: biochemical; assay type: binding, S. Typhimurium
T3 construct: the periplasmic LBD (residues 43–357) of YedQ is structurally not well defined; His6 (N, cleaved yes); made in house; host or cells: E. coli BL21(DE3) or its luxS deletion derivative, pET-28a
Description: as §1

YedQ-LBD K236A = YedQ-LBD K236A (Salmonella typhimurium, UniProt Q8ZNT5, K236A); assay: biochemical
Description: as §1
(§2) The binding affinitywas evaluated using ITC analysis. ITC data and plots of injected heat for injections
(§3) binding curves were corrected for the dilution effects in the final analysis.
(§4) The Kd and binding stoichiometry
(§5) (n)values were presented as mean ± s.d. of three independent experiments. Source data are provided

YedQ-LBD D233A = YedQ-LBD D233A (Salmonella typhimurium, UniProt Q8ZNT5, D233A); assay: biochemical
Description: as §1, §2, §3, §4, §5

YedQ-LBD Q264A = YedQ-LBD Q264A (Salmonella typhimurium, UniProt Q8ZNT5, Q264A); assay: biochemical
Description: as §1, §2, §3, §4, §5

YedQ-LBD L288A = YedQ-LBD L288A (Salmonella typhimurium, UniProt Q8ZNT5, L288A); assay: biochemical
Description: as §1, §2, §3, §4, §5

YedQ-LBD L289A = YedQ-LBD L289A (Salmonella typhimurium, UniProt Q8ZNT5, L289A); assay: biochemical
Description: as §1, §2, §3, §4, §5

YedQ = test system: T4, YedQ; assay: In vitro DGC activity assay of YedQ (membrane fractions, HPLC of c-di-GMP); assay type: biochemical, S. Typhimurium; settings: for Effect on DGC activity of YedQ in c-di-GMP synthesis (in words): in vitro, membrane fractions
T4 construct: Preparation of membrane fractions containing full-length YeaJ and YedQ; made in house; host or cells: ΔluxS mutant of E. coli BL21(DE3), membrane fractions

Sequence of YedQ-LBD L288A (Q8ZNT5 43-357 L288A): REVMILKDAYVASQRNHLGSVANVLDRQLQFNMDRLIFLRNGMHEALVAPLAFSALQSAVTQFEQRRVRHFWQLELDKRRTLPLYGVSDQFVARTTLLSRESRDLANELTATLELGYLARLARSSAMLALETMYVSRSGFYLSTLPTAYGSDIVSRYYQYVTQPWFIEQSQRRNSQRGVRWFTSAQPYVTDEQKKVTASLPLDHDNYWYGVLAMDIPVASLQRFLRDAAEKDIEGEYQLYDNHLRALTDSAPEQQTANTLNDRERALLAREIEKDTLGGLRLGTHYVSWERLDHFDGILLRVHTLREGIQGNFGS
Sequence of YedQ-LBD L289A (Q8ZNT5 43-357 L289A): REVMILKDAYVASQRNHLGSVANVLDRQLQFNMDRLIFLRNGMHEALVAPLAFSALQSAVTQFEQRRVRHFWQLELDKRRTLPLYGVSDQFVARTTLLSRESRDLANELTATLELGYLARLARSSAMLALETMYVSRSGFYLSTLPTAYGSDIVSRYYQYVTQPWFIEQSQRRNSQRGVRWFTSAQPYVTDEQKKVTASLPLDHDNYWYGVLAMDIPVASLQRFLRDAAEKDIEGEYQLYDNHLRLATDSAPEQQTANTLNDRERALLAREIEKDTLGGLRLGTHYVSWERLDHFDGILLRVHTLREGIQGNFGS
Sequence of YedQ-LBD K236A (Q8ZNT5 43-357 K236A): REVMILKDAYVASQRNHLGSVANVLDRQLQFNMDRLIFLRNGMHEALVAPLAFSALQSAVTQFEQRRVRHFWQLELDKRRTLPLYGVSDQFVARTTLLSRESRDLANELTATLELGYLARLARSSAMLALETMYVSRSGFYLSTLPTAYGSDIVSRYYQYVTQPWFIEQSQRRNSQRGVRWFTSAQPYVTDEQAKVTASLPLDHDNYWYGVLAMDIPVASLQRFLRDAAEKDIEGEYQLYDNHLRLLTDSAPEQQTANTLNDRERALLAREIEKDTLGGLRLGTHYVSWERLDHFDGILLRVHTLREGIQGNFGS
Sequence of YedQ-LBD Q264A (Q8ZNT5 43-357 Q264A): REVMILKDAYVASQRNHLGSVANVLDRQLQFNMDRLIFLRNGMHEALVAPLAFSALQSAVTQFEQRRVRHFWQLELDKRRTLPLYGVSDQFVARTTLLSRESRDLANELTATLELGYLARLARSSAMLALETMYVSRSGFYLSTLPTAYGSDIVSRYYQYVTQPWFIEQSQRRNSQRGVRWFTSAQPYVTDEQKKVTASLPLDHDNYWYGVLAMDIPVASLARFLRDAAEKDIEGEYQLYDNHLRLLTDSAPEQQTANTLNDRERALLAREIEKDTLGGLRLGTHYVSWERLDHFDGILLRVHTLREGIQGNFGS
T3 sequence (Q8ZNT5 43-357): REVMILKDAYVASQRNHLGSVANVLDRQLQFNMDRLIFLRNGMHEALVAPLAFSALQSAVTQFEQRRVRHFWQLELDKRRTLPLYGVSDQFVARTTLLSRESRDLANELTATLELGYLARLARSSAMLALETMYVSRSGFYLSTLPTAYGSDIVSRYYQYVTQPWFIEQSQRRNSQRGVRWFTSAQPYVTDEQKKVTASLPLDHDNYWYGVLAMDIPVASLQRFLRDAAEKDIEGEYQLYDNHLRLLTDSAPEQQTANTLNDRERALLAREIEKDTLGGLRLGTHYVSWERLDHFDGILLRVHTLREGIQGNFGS
Sequence of YedQ-LBD D233A (Q8ZNT5 43-357 D233A): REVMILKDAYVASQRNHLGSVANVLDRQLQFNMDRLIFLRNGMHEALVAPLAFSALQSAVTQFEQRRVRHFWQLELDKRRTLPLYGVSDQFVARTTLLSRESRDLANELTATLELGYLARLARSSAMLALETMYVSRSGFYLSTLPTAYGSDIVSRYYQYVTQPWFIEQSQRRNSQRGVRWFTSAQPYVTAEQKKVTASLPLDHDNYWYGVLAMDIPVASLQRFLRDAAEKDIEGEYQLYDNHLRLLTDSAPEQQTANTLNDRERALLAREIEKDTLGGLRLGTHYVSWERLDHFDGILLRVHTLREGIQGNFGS
T1 sequence (P69066 whole entry): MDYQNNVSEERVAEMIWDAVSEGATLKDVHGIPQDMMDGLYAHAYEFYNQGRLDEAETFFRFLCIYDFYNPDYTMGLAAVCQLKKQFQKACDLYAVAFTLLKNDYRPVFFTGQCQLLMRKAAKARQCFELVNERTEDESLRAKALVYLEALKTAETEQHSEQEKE

Compound	OD590 (S. Typhimurium [1])	Binding to SicA (in words) (SicA)	Biofilm formation (in words) (S. Typhimurium [1])	Binding affinity (in words) (WP_010904779-LBD)	c-di-GMP (fmol/107 cells) (S. Typhimurium [2])	Change of intracellular c-di-GMP levels (in words) (S. Typhimurium [2])	Induction of intracellular c-di-GMP levels (in words) (S. Typhimurium [2])	Concentration of c-di-GMP (YedQ; 100 μM, 30 min)	Concentration of c-di-GMP (YedQ; 100 μM, 60 min)	Concentration of c-di-GMP (YedQ; 200 μM, 30 min)	Concentration of c-di-GMP (YedQ; 200 μM, 60 min)	Effect on DGC activity of YedQ in c-di-GMP synthesis (in words) (YedQ)	other results
C[C@H](CCC(=O)O)[C@H]1CC[C@H]2[C@@H]3[C@H](O)C[C@@H]4C[C@H](O)CC[C@]4(C)[C@H]3C[C@H](O)[C@]12C [Cholate]	2.29 and 2.20 and 2.14	–	–	–	–	–	–	–	–	–	–	–	–
C[C@H](CCC(=O)NCC(=O)O)[C@H]1CC[C@H]2[C@@H]3[C@H](O)C[C@@H]4C[C@H](O)CC[C@]4(C)[C@H]3C[C@H](O)[C@]12C [Glycocholate]	2.14	–	–	–	–	–	–	–	–	–	–	–	–
Nc1ncnc2c1ncn2[C@@H]1O[C@@H]2COP(=O)(O)O[C@H]3[C@@H](O)[C@H](n4cnc5c(N)ncnc54)O[C@@H]3COP(=O)(O)O[C@H]2[C@H]1O [c-di-AMP]	–	no binding	–	–	–	–	–	–	–	–	–	–	–
Nc1nc2c(ncn2[C@@H]2O[C@@H]3COP(=O)(O)O[C@H]3[C@H]2O)c(=O)[nH]1 [cGMP]	–	no binding	–	–	–	–	–	–	–	–	–	–	–
C[C@H](CCC(=O)NCCS(=O)(=O)O)[C@H]1CC[C@H]2[C@@H]3[C@H](O)C[C@@H]4C[C@H](O)CC[C@]4(C)[C@H]3C[C@H](O)[C@]12C [taurocholate]	–	–	significantly stimulated biofilm formation	high binding; also recorded: high affinity	57.59 fmol/107 cells and 62.54 fmol/107 cells and 56.52 fmol/107 cells	significant increase	completely abolished	22.83 µM and 22.66 µM and 23.00 µM	34.84 µM and 35.29 µM and 36.56 µM	39.61 µM and 38.40 µM and 39.33 µM	45.78 µM and 46.73 µM and 45.87 µM	induce the DGC activity	n, Taurocholate binding to WP_010904779-LBD (WP_010904779-LBD; ITC binding stoichiometry n, individual replicates, Supplementary Figure 24a): 1.06 and 1.08 and 1.12; Kd (WP_010904779-LBD; Taurocholate binding to WP_010904779-LBD, individual replicates, Supplementary Figure 24a): 0.19 µM and 0.22 µM and 0.23 µM; Kd (YedQ-LBD; Kd (μM), binding to YedQ-LBD (WT)): 0.2 µM and 0.13 µM and 0.16 µM; Kd (YedQ-LBD; Kd, ITC, YedQ-LBD WT, mean ± s.d. of three independent experiments): 0.17 ± 0.03 µM; Kd (YedQ-LBD K236A; Binding affinity Kd (μM), ITC, YedQ-LBD K236A, mean ± s.d.): 27 ± 2 µM; n, Taurocholate binding to YedQ-LBDK236A (YedQ-LBD K236A; ITC binding stoichiometry n, individual replicates, Supplementary Figure 11b): 1.04 and 1.09 and 1.01; Kd (YedQ-LBD K236A; Kd (μM), binding to YedQ-LBD K236A): 24 µM and 26 µM and 30 µM; Kd (YedQ-LBD D233A; Binding affinity Kd (μM), ITC, YedQ-LBD D233A, mean ± s.d.): 18 ± 1 µM; n, Taurocholate binding to YedQ-LBDD233A (YedQ-LBD D233A; ITC binding stoichiometry n, individual replicates, Supplementary Figure 11a): 1.11 and 1.16 and 1.13; Kd (YedQ-LBD D233A; Kd (μM), binding to YedQ-LBD D233A): 18 µM and 16 µM; Kd (YedQ-LBD D233A; Kd, Taurocholate binding to YedQ-LBDD233A, ITC, individual replicates, Supplementary Figure 11a): 18 µM; n, Taurocholate binding to YedQ-LBDQ264A (YedQ-LBD Q264A; ITC binding stoichiometry n, individual replicates, Supplementary Figure 11c): 1.07 and 1.18 and 1.00; Kd (YedQ-LBD Q264A; Kd (μM), binding to YedQ-LBD Q264A): 14 µM and 12 µM and 15 µM; n, Taurocholate binding to YedQ-LBDL288A (YedQ-LBD L288A; ITC binding stoichiometry n, individual replicates, Supplementary Figure 11d): 1.10 and 1.02 and 1.07; Kd (YedQ-LBD L288A; Kd (μM), binding to YedQ-LBD L288A): 18 µM and 21 µM and 24 µM; n, Taurocholate binding to YedQ-LBDL289A (YedQ-LBD L289A; ITC binding stoichiometry n, individual replicates, Supplementary Figure 11e): 1.18 and 1.14 and 1.16; Kd (YedQ-LBD L289A; Kd (μM), binding to YedQ-LBD L289A): 7.7 µM and 6.8 µM and 7.2 µM
C[C@H](CCC(=O)NCCS(=O)(=O)O)[C@H]1CC[C@H]2[C@@H]3CC[C@@H]4C[C@H](O)CC[C@]4(C)[C@H]3C[C@H](O)[C@]12C [taurodeoxycholate]	–	–	significantly stimulated biofilm formation	high binding; also recorded: high affinity	78.56 fmol/107 cells and 82.79 fmol/107 cells and 79.80 fmol/107 cells	significant increase	completely abolished	22.89 µM and 24.25 µM and 23.52 µM	34.75 µM and 35.42 µM and 35.31 µM	37.84 µM and 36.56 µM and 37.20 µM	46.63 µM and 47.86 µM and 45.57 µM	induce the DGC activity	n, Taurodeoxycholate binding to WP_010904779-LBD (WP_010904779-LBD; ITC binding stoichiometry n, individual replicates, Supplementary Figure 24b): 1.13 and 1.09 and 1.12; Kd (WP_010904779-LBD; Taurodeoxycholate binding to WP_010904779-LBD, individual replicates, Supplementary Figure 24b): 0.13 µM and 0.17 µM and 0.19 µM; Kd (YedQ-LBD; ITC, YedQ-LBD WT, mean ± s.d. of three independent experiments, read-out: Kd): 0.14 ± 0.02 µM; Kd (YedQ-LBD; binding to YedQ-LBD (WT), read-out: Kd): 0.15 µM and 0.17 µM and 0.11 µM
